Source: patent US9096591B2, “Tetracyclic compounds” (Medivation Technologies, Inc., priority 2007, dated 2015)

What was measured:
[1] = tested on: AMPA receptors; assay: AMPA-receptor activity: kainic acid-induced currents in Purkinje cells (patch-clamp); type: cell-based, rat; details: mean±SEM, control=100%
Procedure, shortened: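 Whole-cell patch-clamp on Purkinje cells freshly isolated enzymatically from cerebellum of 12-15-day-old rats; currents evoked by kainic acid superfusion in HEPES saline pH 7.36, KCl/EGTA pipette solution pH 7.2. Each concentration repeated 3-4 times per neuron in 3-5 neurons; values are mean±SEM as % of control current.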

[2] = tested on: rat brain mitochondria; assay: Calcium retention capacity of mitochondria; type: biochemical, Wistar rats; details: at concentrations near the IC50
Experimental: Analyses of extramitochondrial Ca^2+ following a bolus dose of Ca^2+ were performed under energized conditions, in a sucrose based buffer (250 mM sucrose, 10 mM HEPES, 1 mM Pi (K), 1 mM MgCl2, 10 μM EGTA, pH 7.2) containing 5 mkM Arsenazo III, 1 μg/ml oligomycin and 20 μM ADP with 5 mM malate and glutamate as respiratory substrates in a cuvette in a Beckman DU 640 spectrophotometer.

Structure (SMILES): CN1CCc2c(c3cc(Cl)ccc3n2CCc2nc(-c3ccccc3)cs2)C1 [Compound C1-8]
- kainic acid-induced currents in Purkinje cells, % of Control values ([1]; compound 3 × 10^−5 M): 90 ± 7%
- kainic acid-induced currents in Purkinje cells, % of Control values ([1]; compound 10^−5 M): 105 ± 8%
- kainic acid-induced currents in Purkinje cells, % of Control values ([1]; compound 10^−6 M): 123 ± 8%
- kainic acid-induced currents in Purkinje cells, % of Control values ([1]; compound 10^−7 M): 102 ± 3%
- kainic acid-induced currents in Purkinje cells, % of Control values ([1]; compound 10^−8 M): 100 ± 4%
- calcium-retention capacity of mitochondria [2]: increased the calcium-retention capacity of mitochondria
